# Numbers after ± are expanded uncertainties.
# Conditions: 283.15 K, Liquid, Vibrating tube method
smiles,measurement,setting,value
CCCCC(=O)OCC(COC(=O)CCCC)(COC(=O)CCCC)COC(=O)CCCC [pentaerythritol tetrapentanoate],mass density,2596 kPa,1028.7 ± 1.2 kg/m3
same,mass density,2607.6 kPa,1028.6 ± 1.2 kg/m3
same,mass density,2619.2 kPa,1028.8 ± 1.2 kg/m3
same,mass density,2631.2 kPa,1028.6 ± 1.2 kg/m3
same,mass density,2645.8 kPa,1028.6 ± 1.2 kg/m3
same,mass density,2657.4 kPa,1028.6 ± 1.2 kg/m3
same,mass density,2670 kPa,1028.7 ± 1.2 kg/m3
same,mass density,2684.8 kPa,1028.6 ± 1.2 kg/m3
same,mass density,2697.1 kPa,1028.5 ± 1.2 kg/m3
same,mass density,2708.7 kPa,1028.6 ± 1.2 kg/m3
same,mass density,2721.4 kPa,1028.6 ± 1.2 kg/m3
same,mass density,2736.6 kPa,1028.8 ± 1.2 kg/m3
same,mass density,2749.1 kPa,1028.6 ± 1.2 kg/m3
same,mass density,2762 kPa,1028.6 ± 1.2 kg/m3
same,mass density,2777.4 kPa,1028.7 ± 1.2 kg/m3
same,mass density,2790.4 kPa,1028.7 ± 1.2 kg/m3
same,mass density,2803.7 kPa,1028.6 ± 1.2 kg/m3
same,mass density,2819.5 kPa,1028.6 ± 1.2 kg/m3
same,mass density,2833.1 kPa,1028.7 ± 1.2 kg/m3
same,mass density,2846.4 kPa,1028.7 ± 1.2 kg/m3
same,mass density,2860.3 kPa,1028.7 ± 1.2 kg/m3
same,mass density,2874 kPa,1028.8 ± 1.2 kg/m3
same,mass density,2891 kPa,1028.7 ± 1.2 kg/m3
same,mass density,2904.7 kPa,1028.6 ± 1.2 kg/m3
same,mass density,2918.7 kPa,1028.8 ± 1.2 kg/m3
same,mass density,2935.2 kPa,1028.8 ± 1.2 kg/m3
same,mass density,2949.4 kPa,1028.8 ± 1.2 kg/m3
same,mass density,2963.8 kPa,1028.8 ± 1.2 kg/m3
same,mass density,2978.5 kPa,1028.7 ± 1.2 kg/m3
same,mass density,2995.7 kPa,1028.9 ± 1.2 kg/m3
same,mass density,3010.3 kPa,1028.8 ± 1.2 kg/m3
same,mass density,3025.5 kPa,1028.8 ± 1.2 kg/m3
same,mass density,3042.9 kPa,1028.9 ± 1.2 kg/m3
same,mass density,3057.8 kPa,1029 ± 1.2 kg/m3
same,mass density,3073.4 kPa,1028.9 ± 1.2 kg/m3
same,mass density,3091.7 kPa,1028.8 ± 1.2 kg/m3
same,mass density,3107 kPa,1028.9 ± 1.2 kg/m3
same,mass density,3122.3 kPa,1028.9 ± 1.2 kg/m3
same,mass density,3138 kPa,1029 ± 1.2 kg/m3
same,mass density,3156.6 kPa,1029 ± 1.2 kg/m3
same,mass density,3172.7 kPa,1028.9 ± 1.2 kg/m3
same,mass density,3191.8 kPa,1028.9 ± 1.2 kg/m3
same,mass density,3207.9 kPa,1029 ± 1.2 kg/m3
same,mass density,3224.7 kPa,1028.9 ± 1.2 kg/m3
same,mass density,3241.2 kPa,1029 ± 1.2 kg/m3
same,mass density,3261.6 kPa,1029 ± 1.2 kg/m3
same,mass density,3276.9 kPa,1028.9 ± 1.2 kg/m3
same,mass density,3297 kPa,1028.9 ± 1.2 kg/m3
same,mass density,3314 kPa,1029 ± 1.2 kg/m3
same,mass density,3334.8 kPa,1029.1 ± 1.2 kg/m3
same,mass density,3352.3 kPa,1029 ± 1.2 kg/m3
same,mass density,3369.8 kPa,1029 ± 1.2 kg/m3
same,mass density,3387.8 kPa,1029 ± 1.2 kg/m3
same,mass density,3405.8 kPa,1029.1 ± 1.2 kg/m3
same,mass density,3427.2 kPa,1029.1 ± 1.2 kg/m3
same,mass density,3444.8 kPa,1029.1 ± 1.2 kg/m3
same,mass density,3463.4 kPa,1029.2 ± 1.2 kg/m3
same,mass density,3485.6 kPa,1029 ± 1.2 kg/m3
same,mass density,3505 kPa,1029.1 ± 1.2 kg/m3
same,mass density,3523.9 kPa,1029.1 ± 1.2 kg/m3
same,mass density,3543.1 kPa,1029.2 ± 1.2 kg/m3
same,mass density,3562.2 kPa,1029.1 ± 1.2 kg/m3
same,mass density,3585.6 kPa,1029.1 ± 1.2 kg/m3
same,mass density,3605.1 kPa,1029.2 ± 1.2 kg/m3
same,mass density,3625.3 kPa,1029.2 ± 1.2 kg/m3
same,mass density,3645 kPa,1029.4 ± 1.2 kg/m3
same,mass density,3665.5 kPa,1029.2 ± 1.2 kg/m3
same,mass density,3689.4 kPa,1029.2 ± 1.2 kg/m3
same,mass density,3709.5 kPa,1029.3 ± 1.2 kg/m3
same,mass density,3729.7 kPa,1029.2 ± 1.2 kg/m3
same,mass density,3754.5 kPa,1029.2 ± 1.2 kg/m3
same,mass density,3775.8 kPa,1029.2 ± 1.2 kg/m3
same,mass density,3797 kPa,1029.3 ± 1.2 kg/m3
same,mass density,3821.9 kPa,1029.4 ± 1.2 kg/m3
same,mass density,3843.6 kPa,1029.4 ± 1.2 kg/m3
same,mass density,3865.6 kPa,1029.3 ± 1.2 kg/m3
same,mass density,3887.1 kPa,1029.4 ± 1.2 kg/m3
same,mass density,3913.4 kPa,1029.2 ± 1.2 kg/m3
same,mass density,3935.4 kPa,1029.2 ± 1.2 kg/m3
same,mass density,3957.4 kPa,1029.4 ± 1.2 kg/m3

# From the NIST ThermoML archive (doi:10.1021/je060271a)
